Results published in patent publication US6197225A, “Chromene compound” (Tokuyama Corporation, priority 1997, dated 2001).

Columns and labels:
[1] = Photochromic properties of cast polymer (2 mm thick) under xenon lamp irradiation for 120 seconds; assay type: physicochemical; details: for λ max: chromene composition, or other chromene C1-C4, 0.04% by weight in polymer; for Initial color ε(0): chromene composition, or other chromene C1-C4, non-irradiated; for Color-developing sensitivity: saturated color density/xenon irradiation time
Method: 0.04% by weight of the chromene compound obtained in Example 1 was added to 70 parts of 4G, 15 parts of 3G, 10 parts of GMA, 5 parts of HEMA and 1 part of perbutyl ND, and was mixed together to a sufficient degree. The mixture solution was poured into a mold constituted by a glass plate and a gasket of an ethylene/vinyl acetate copolymer, and was cast-polymerized. By using an air furnace, the polymerization was conducted in a manner that the temperature was gradually raised from 30° C. to 90° C. over a period of 18 hours, and was held at 90° C. for 2 hours. After the polymerization, the polymer was taken out from the glass mold.
By using a xenon lamp, L-2480 (300 W) SHL-100, manufactured by Hamamatsu Photonics Co., the obtained polymer (2 mm thick) was irradiated with a beam of an intensity of 365 nm=2.4 mW/cm^2 and 245 nm=24 μW/cm^2 on the surface of the polymer for 120 seconds through an aero-mass filter (manufactured by Corning Co.) at 20° C.±1° C. to develop color and to measure the photochromic properties which were expressed in the following manner.
1 Maximum absorption wavelength (λmax): λmax of the polymer after it has developed color was found by using a spectrophotometer (instantaneous multi-channel photo-detector, MCPD1000) manufactured by Otsuka Denshi Kogyo Co.
2 Initial color ( ε(0)): Absorbency of the polymer in a non-irradiated state at a wavelength same as the maximum absorption wavelength of when it is irradiated with light.
3 Color density (-)=ε(120)-ε(0). ε(120): Absorbency of the polymer at a maximum absorption wavelength after it was irradiated for 120 seconds under the above-mentioned conditions.
4 Color-developing sensitivity (-/min.)=Saturated color density/xenon irradiation time.
Rate of increase in the color density per a unit time until the color density is saturated.
5 Color fading rate [t1/2 (min.)]=time required until the absorbency of the polymer drops down to one-half of [ε(120)-ε(0)] after irradiated for 120 seconds.
(§1) Photochromic polymers were prepared in the same manner as in Example 42 but using the chromene compounds obtained in Examples 2 to 41, and their maximum absorption wavelengths, color densities, fading rates, changes in the coloring degrees and durabilitys were measured.
(§2) For the purpose of comparison, furthermore, the compounds represented by the following formulas (a), (b), (c), (d), (e) and (f) were measured for their maximum absorption wavelengths, color densities, fading rates, changes in the coloring degrees and durabilitys.
(§3) The procedure was carried out in the same manner as in Example 42 but using 100 parts of AC1 and 133 parts of BC1, the sum of the amounts of AC1 and BC1 being 0.04% by weight. The obtained photochromic polymer was measured for its maximum absorption wavelength, initial color, color density, color-developing sensitivity, fading rate, durability and change in the coloring degree.
(§4) The procedure was carried out in the same manner as in Example 83 but using the known chromene compounds shown in Table 6 instead of the chromene compound used in Example 83. […]

[2] = Aging promotion testing: sunlight 30 min / fading one hour cycles, 10 days (durability, coloring degree); assay type: physicochemical
Method: In order to promote the aging, furthermore, the following testing was conducted. That is, the obtained photochromic polymer was irradiated with sunlight for 30 minutes to develop color, and its color was permitted to fade for one hour in the light of a fluorescent lamp. This cycle was repeated three times a day for a total of 10 days.
The photochromic properties before and after aged were evaluated by evaluating the color densities before and after aged. The initial color density (T0) and the color density (T30) ten days after the aging promotion testing were measured, and the durability was expressed as described below.
Furthermore, the coloring degrees of before developing color were measured before and after aged by using a color difference meter (SM-4) manufactured by Suga Shikenki Co.
7 Coloring degree before being aged=YI(0).
8 Change in the coloring degree (ΔYI)=YI(10)-YI(0)
YI(10): coloring degree after aged
as §1, §2, §3, §4
The obtained polymer (2 mm thick) was caused to develop color outdoors, and tones of the developed color were observed by eyes 30 seconds and 15 minutes after it was brought to the outdoors, and uniformity in the step of developing color was evaluated. […] Furthermore, the aging promoting testing was conducted in the same manner as in Example 42 to find a coloring degree (YI(0)) before aged and a change in the coloring degree (ΔY).

[3] = single chromene compound 0.04% by weight in polymer, 20° C., Table 5
[4] = single chromene compound 0.04% by weight in polymer, 120 seconds, 20° C., Table 5
[5] = YI(10)-YI(0), single chromene compound in polymer, 10 days aging, Table 5
[6] = single chromene compound in polymer, 10 days aging, Table 5
[7] = chromene composition, or other chromene C1-C4, 120 seconds, Table 6
[8] = chromene composition, or other chromene C1-C4, Table 6
[9] = chromene composition, or other chromene C1-C4, 10 days aging, Table 6

Row | Structure (SMILES) | Fading rate t1/2 [1, 3] | Maximum absorption wavelength λmax [1, 3] | Color density ε(120)-ε(0) [1, 4] | Change in the coloring degree ΔYI [2, 5] | Light resistance (durability) [2, 6] | λ max ([1]; Table 6) | Color density ε(120)-ε(0) [1, 7] | Initial color ε(0) ([1]; Table 6) | Fading rate t1/2 [1, 8] | Color-developing sensitivity ([1]; Table 6) | Change in the coloring degree ΔYI [2, 9] | Durability [2, 9]
1 | CC(C)c1cc2ccccc2c2c1C=CC1(O2)C2CCC1CC2 (stereo not drawn) [Compound 19] | 1.0 min | 448 nm | 0.5 | 5.5 | 92% |  |  |  |  |  |  | 
2 | CC(C)(C)c1cc2ccccc2c2c1C=CC1(O2)C2CC3CC(C2)CC1C3 (stereo not drawn) [Compound 24] | 1.8 min | 445 nm | 0.6 | 5.0 | 95% |  |  |  |  |  |  | 
3 | COc1ccc(C2(c3ccc(OC(F)(F)F)cc3)C=Cc3c(C)cc4ccccc4c3O2)cc1 (stereo not drawn) [Compound 30] | 8.5 min | 490 nm | 1.1 | 2.4 | 97% |  |  |  |  |  |  | 
4 | CC(C)c1cc2ccccc2c2c1C=CC1(O2)C2CC3CC(C2)CC1C3 (stereo not drawn) [Compound 25] | 2.0 min | 454 nm | 0.7 | 2.2 | 92% |  |  |  |  |  |  | 
5 | CCOc1ccc(C2(c3ccc(OC)cc3)C=Cc3c(CC)cc4c(Cc5ccccc5)cccc4c3O2)cc1 (stereo not drawn) [Compound 39] | 5.8 min | 524 nm | 1.0 | 2.5 | 96% |  |  |  |  |  |  | 
6 | CC(C)(C)c1cc2ccccc2c2c1C=CC(c1ccccc1)(c1cccs1)O2 (stereo not drawn) [Compound 6] | 2.8 min | 480 nm | 0.8 | 1.8 | 97% |  |  |  |  |  |  | 
7 | CC(C)c1cc2ccccc2c2c1C=CC1(O2)C2CCCC1CCC2 (stereo not drawn) [Compound 21] | 1.0 min | 449 nm | 0.5 | 2.0 | 97% |  |  |  |  |  |  | 
8 | CC(C)c1cc2ccccc2c2c1C=CC(c1ccccc1)(c1ccccc1)O2 [Compound 12] | 6.8 min | 476 nm | 0.9 | 1.0 | 99% |  |  |  |  |  |  | 
9 | CCOC(=O)c1c2c(c3ccccc3c1C)OC(c1ccccc1)(c1ccccc1)C=C2 [Compound C2, 5-Ethoxycarbonyl-6-methyl-2,2-diphenyl-2H-benzo(h) chromene, reference compound] |  |  |  |  |  | 458 nm | 0.9 | 0.02 | 4.0 min | 0.2 -/min. | 4.0 | 95%
10 | COc1ccc(C2(c3ccc(OC(F)(F)F)cc3)C=Cc3c(C(C)C)cc4ccccc4c3O2)cc1 (stereo not drawn) [Compound 15] | 4.8 min | 486 nm | 0.9 | 1.2 | 96% |  |  |  |  |  |  | 
11 | CC(C)c1cc2ccccc2c2c1C=CC(c1ccccc1)(c1ccc(OC(F)(F)F)cc1)O2 (stereo not drawn) [Compound 16] | 5.2 min | 470 nm | 0.9 | 1.2 | 99% |  |  |  |  |  |  | 
12 | CC(=O)Oc1ccc2c3c(c(C(C)C)cc2c1)C=CC(c1ccc(C)cc1)(c1ccc(C)cc1)O3 [Compound 10] | 3.2 min | 465 nm | 0.6 | 1.5 | 93% |  |  |  |  |  |  | 
13 | CC(C)(C)c1cc2ccccc2c2c1C=CC1(CC3CCC1C3)O2 (stereo not drawn) [Compound 18] | 1.3 min | 440 nm | 0.4 | 1.8 | 95% |  |  |  |  |  |  | 
14 | COc1ccc2c3c(c(C(C)Cc4ccccc4)cc2c1)C=CC(c1ccccc1)(c1cccn1C)O3 (stereo not drawn) [Compound 8] | 2.2 min | 490 nm | 0.7 | 2.0 | 92% |  |  |  |  |  |  | 
15 | COc1ccc(C2(c3ccc(OC)cc3)C=Cc3c(C)cc4ccc(C)cc4c3O2)cc1 [Compound 36] | 6.0 min | 510 nm | 1.1 | 2.3 | 98% |  |  |  |  |  |  | 
16 | Cc1c2c(c3ccccc3c1C)OC(c1ccccc1)(c1ccccc1)C=C2 [Compound C3, 5,6-Dimethyl-2,2-diphenyl-2H-benzo(h)chromene, reference compound] |  |  |  |  |  | 480 nm | 1.0 | 0.01 | 10 min | 0.2 -/min. | 5.0 | 95%
17 | CCOC(=O)c1c2c(c3ccccc3c1C)OC1(C=C2)C2CCCC1CCC2 (stereo not drawn) [f, reference compound] | 4.1 min | 446 nm | 0.6 | 6.0 | 96% |  |  |  |  |  |  | 
18 | COc1ccc(C2(c3ccc(OC)cc3)C=Cc3c(C)cc4c(OC)cccc4c3O2)cc1 [Compound 33] | 5.5 min | 520 nm | 1.3 | 2.2 | 98% |  |  |  |  |  |  | 
19 | CCC(C)c1cc2ccccc2c2c1C=CC(c1ccc(OC)cc1)(c1ccc(OC)c(C#N)c1)O2 (stereo not drawn) [Compound 4] | 2.4 min | 470 nm | 0.7 | 5.0 | 80% |  |  |  |  |  |  | 
